Data published in PubChem BioAssay AID330 (DTP/NCI, 2004).
Several values for one entry are separate records, joined by “and”; a condition that tells them apart may be missing. Equal entries are not always repeated. Toxic doses and inconclusive results are not listed.

System: P388 leukemia ip, CD2F1 mice, survival T/C
Assay: NCI In Vivo Anticancer Drug Screen. Data for tumor model P388 Leukemia (intraperitoneal) in CD2F1 (CDF1) mice
Details: endpoint: median survival time, higher = longer survival
In short: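 Mice carrying the transplanted tumor received test compound or vehicle. Survival was recorded in each group, and the value is the treated-group measurement divided by that of the vehicle-treated control group.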

`O=C1c2ccccc2C(=O)c2c(NCCNCCO)ccc(NCCNCCO)c21` was tested, and the T/C (dose: 0.1 mg/kg/injection, schedule: Q04DX003 (ip), vehicle: saline) was 108 % of control, the T/C (dose: 0.3 mg/kg/injection, schedule: Q04DX003 (ip), vehicle: saline) was 116 % of control and the T/C (dose: 0.5 mg/kg/injection, schedule: Q01DX009 (ip), vehicle: water) was 165 % of control. For the same compound, the T/C (dose: 0.5 mg/kg/injection, schedule: Q04DX003 (ip), vehicle: saline) was 118 % of control, the T/C (dose: 1.0 mg/kg/injection, schedule: Q01DX009 (ip), vehicle: water) was 167 % of control and the T/C (dose: 1.0 mg/kg/injection, schedule: Q04DX003 (ip), vehicle: saline) was 110 % of control and 115 % of control. For the same compound, the T/C (dose: 1.25 mg/kg/injection, schedule: Q01DX009 (ip), vehicle: saline) was 192 % of control, the T/C (dose: 1.25 mg/kg/injection, schedule: Q01DX009 (ip), vehicle: water) was 155 % of control and the T/C (dose: 2.0 mg/kg/injection, schedule: Q01DX009 (ip), vehicle: saline) was 199 % of control. The T/C (dose: 2.0 mg/kg/injection, schedule: Q04DX003 (ip), vehicle: saline) was 117 % of control, the T/C (dose: 3.13 mg/kg/injection, schedule: Q01DX005 (ip), vehicle: saline) was 169 % of control and the T/C (dose: 3.13 mg/kg/injection, schedule: Q01DX005 (iv), vehicle: saline) was 114 % of control. The T/C (dose: 3.89 mg/kg/injection, schedule: Q01DX009 (ip), vehicle: saline) was 200 % of control and 261 % of control, the T/C (dose: 3.89 mg/kg/injection, schedule: Q01DX009 (sc), vehicle: saline) was 118 % of control and the T/C (dose: 4.0 mg/kg/injection, schedule: Q01DX009 (ip), vehicle: saline) was 233 % of control. The T/C (dose: 4.0 mg/kg/injection, schedule: Q04DX003 (ip), vehicle: saline) was 117 % of control, the T/C (dose: 5.0 mg/kg/injection, schedule: Q01DX005 (ip), vehicle: saline) was 223 % of control and the T/C (dose: 5.0 mg/kg/injection, schedule: Q01DX005 (iv), vehicle: saline) was 116 % of control. The T/C (dose: 6.22 mg/kg/injection, schedule: Q04DX003 (iv), vehicle: saline) was 109 % of control and 118 % of control, the T/C (dose: 6.25 mg/kg/injection, schedule: Q01DX005 (ip), vehicle: saline) was 205 % of control and the T/C (dose: 6.25 mg/kg/injection, schedule: Q01DX009 (ip), vehicle: water) was 156 % of control. The T/C (dose: 6.48 mg/kg/injection, schedule: Q01DX009 (ip), vehicle: saline) was 207 % of control and 245 % of control, the T/C (dose: 7.78 mg/kg/injection, schedule: Q01DX001 (iv), vehicle: saline) was 107 % of control and 111 % of control and the T/C (dose: 7.78 mg/kg/injection, schedule: Q01DX005 (ip), vehicle: saline) was 261 % of control. For the same compound, the T/C (dose: 7.78 mg/kg/injection, schedule: Q04DX003 (ip), vehicle: saline) was 181 % of control, the T/C (dose: 8.0 mg/kg/injection, schedule: Q04DX003 (ip), vehicle: Klucel (hydroxypropylcellulose) (HPC)) was 172 % of control and the T/C (dose: 8.0 mg/kg/injection, schedule: Q04DX003 (ip), vehicle: saline) was 153 % of control. The T/C (dose: 10.0 mg/kg/injection, schedule: Q01DX001 (iv), vehicle: saline) was 107 % of control, the T/C (dose: 10.0 mg/kg/injection, schedule: Q01DX005 (ip), vehicle: saline) was 258 % of control and the T/C (dose: 10.0 mg/kg/injection, schedule: Q04DX003 (ip), vehicle: saline) was 178 % of control. For the same compound, the T/C (dose: 10.0 mg/kg/injection, schedule: Q04DX003 (iv), vehicle: saline) was 108 % of control, the T/C (dose: 10.4 mg/kg/injection, schedule: Q04DX003 (ip), vehicle: saline) was 196 % of control and 208 % of control and the T/C (dose: 10.4 mg/kg/injection, schedule: Q04DX003 (iv), vehicle: saline) was 117 % of control. For the same compound, the T/C (dose: 10.8 mg/kg/injection, schedule: Q01DX009 (ip), vehicle: saline) was 209 % of control, the T/C (dose: 10.8 mg/kg/injection, schedule: Q01DX009 (sc), vehicle: saline) was 178 % of control and the T/C (dose: 12.5 mg/kg/injection, schedule: Q01DX005 (ip), vehicle: saline) was 241 % of control. The T/C (dose: 12.5 mg/kg/injection, schedule: Q01DX009 (ip), vehicle: water) was 187 % of control, the T/C (dose: 12.5 mg/kg/injection, schedule: Q04DX003 (ip), vehicle: saline) was 176 % of control and the T/C (dose: 13.0 mg/kg/injection, schedule: Q01DX001 (iv), vehicle: saline) was 111 % of control and 112 % of control. The T/C (dose: 13.0 mg/kg/injection, schedule: Q01DX005 (iv), vehicle: saline) was 161 % of control, the T/C (dose: 13.0 mg/kg/injection, schedule: Q04DX003 (ip), vehicle: saline) was 156 % of control and 203 % of control and the T/C (dose: 13.8 mg/kg/injection, schedule: Q04DX003 (ip), vehicle: saline) was 209 % of control. For the same compound, the T/C (dose: 15.0 mg/kg/injection, schedule: Q01DX009 (ip), vehicle: saline) was 113 % of control, the T/C (dose: 16.0 mg/kg/injection, schedule: Q01DX009 (ip), vehicle: saline) was 177 % of control and the T/C (dose: 16.0 mg/kg/injection, schedule: Q04DX003 (ip), vehicle: Klucel (hydroxypropylcellulose) (HPC)) was 175 % of control. The T/C (dose: 17.3 mg/kg/injection, schedule: Q04DX003 (ip), vehicle: saline) was 216 % of control and 241 % of control, the T/C (dose: 18.0 mg/kg/injection, schedule: Q01DX009 (sc), vehicle: saline) was 205 % of control and the T/C (dose: 20.0 mg/kg/injection, schedule: Q01DX001 (ip), vehicle: saline) was 163 % of control. For the same compound, the T/C (dose: 20.0 mg/kg/injection, schedule: Q01DX001 (iv), vehicle: saline) was 115 % of control, the T/C (dose: 20.0 mg/kg/injection, schedule: Q01DX005 (iv), vehicle: saline) was 173 % of control and the T/C (dose: 21.6 mg/kg/injection, schedule: Q01DX001 (ip), vehicle: saline) was 178 % of control and 213 % of control. The T/C (dose: 21.6 mg/kg/injection, schedule: Q01DX001 (iv), vehicle: saline) was 117 % of control, the T/C (dose: 24.0 mg/kg/injection, schedule: Q04DX003 (ip), vehicle: saline) was 116 % of control and the T/C (dose: 25.0 mg/kg/injection, schedule: Q01DX005 (iv), vehicle: saline) was 178 % of control. For the same compound, the T/C (dose: 25.0 mg/kg/injection, schedule: Q01DX009 (ip), vehicle: water) was 122 % of control, the T/C (dose: 25.0 mg/kg/injection, schedule: Q04DX003 (ip), vehicle: Klucel (hydroxypropylcellulose) (HPC)) was 157 % of control and the T/C (dose: 25.0 mg/kg/injection, schedule: Q04DX003 (ip), vehicle: saline) was 246 % of control. For the same compound, the T/C (dose: 28.8 mg/kg/injection, schedule: Q04DX003 (ip), vehicle: saline) was 252 % of control, the T/C (dose: 30.0 mg/kg/injection, schedule: Q01DX009 (sc), vehicle: saline) was 227 % of control and the T/C (dose: 32.0 mg/kg/injection, schedule: Q04DX003 (ip), vehicle: Klucel (hydroxypropylcellulose) (HPC)) was 114 % of control. For the same compound, the T/C (dose: 32.0 mg/kg/injection, schedule: Q04DX003 (ip), vehicle: saline) was 166 % of control, the T/C (dose: 36.0 mg/kg/injection, schedule: Q01DX001 (ip), vehicle: saline) was 209 % of control and 233 % of control and the T/C (dose: 36.0 mg/kg/injection, schedule: Q01DX005 (ip), vehicle: saline) was 121 % of control. For the same compound, the T/C (dose: 40.0 mg/kg/injection, schedule: Q01DX001 (ip), vehicle: saline) was 197 % of control, the T/C (dose: 40.0 mg/kg/injection, schedule: Q01DX005 (ip), vehicle: saline) was 250 % of control and the T/C (dose: 40.0 mg/kg/injection, schedule: Q04DX003 (ip), vehicle: saline) was 214 % of control. The T/C (dose: 50.0 mg/kg/injection, schedule: Q04DX003 (ip), vehicle: Klucel (hydroxypropylcellulose) (HPC)) was 150 % of control and 174 % of control, the T/C (dose: 50.0 mg/kg/injection, schedule: Q04DX003 (ip), vehicle: saline) was 192 % of control and the T/C (dose: 60.0 mg/kg/injection, schedule: Q01DX001 (ip), vehicle: saline) was 218 % of control and 224 % of control. For the same compound, the T/C (dose: 64.0 mg/kg/injection, schedule: Q04DX003 (ip), vehicle: Klucel (hydroxypropylcellulose) (HPC)) was 163 % of control, the T/C (dose: 64.0 mg/kg/injection, schedule: Q04DX003 (ip), vehicle: saline) was 166 % of control and 201 % of control and the T/C (dose: 80.0 mg/kg/injection, schedule: Q01DX001 (ip), vehicle: saline) was 241 % of control. The T/C (dose: 96.0 mg/kg/injection, schedule: Q04DX003 (ip), vehicle: saline) was 152 % of control and 153 % of control, the T/C (dose: 100.0 mg/kg/injection, schedule: Q01DX001 (ip), vehicle: saline) was 210 % of control and the T/C (dose: 100.0 mg/kg/injection, schedule: Q04DX003 (ip), vehicle: Klucel (hydroxypropylcellulose) (HPC)) was 176 % of control and 178 % of control. The T/C (dose: 128.0 mg/kg/injection, schedule: Q04DX003 (ip), vehicle: saline) was 173 % of control and 186 % of control, the T/C (dose: 167.0 mg/kg/injection, schedule: Q01DX001 (ip), vehicle: saline) was 216 % of control and the T/C (dose: 192.0 mg/kg/injection, schedule: Q04DX003 (ip), vehicle: saline) was 150 % of control. The T/C (dose: 200.0 mg/kg/injection, schedule: Q04DX003 (ip), vehicle: Klucel (hydroxypropylcellulose) (HPC)) was 157 % of control.
